According to patent US20030224485A1, “Expression system for ABC transporters” (priority 2002, published 2003):

Columns and labels:
[1] = target: T1, co-expressed N and C halves of ABCR (Homo sapiens, UniProt P78363); experiment: 8-azido-ATP photoaffinity labeling of membranes from transfected cells; type: binding; conditions: 1 mM ATP added prior to labeling with 1.5 μM 8-azido-[α-32P]ATP; FIG. 5A lane 4; C-half labeled
T1 construct: N-half (amino acids 1-1325) and C-half (amino acids 1326-2273) of ABCR; added initiator Met (ATG in the forward primer, read by me) (N); made in house; host or cells: COS-1 (co-transfection)
T1 sequence (P78363 1-1325): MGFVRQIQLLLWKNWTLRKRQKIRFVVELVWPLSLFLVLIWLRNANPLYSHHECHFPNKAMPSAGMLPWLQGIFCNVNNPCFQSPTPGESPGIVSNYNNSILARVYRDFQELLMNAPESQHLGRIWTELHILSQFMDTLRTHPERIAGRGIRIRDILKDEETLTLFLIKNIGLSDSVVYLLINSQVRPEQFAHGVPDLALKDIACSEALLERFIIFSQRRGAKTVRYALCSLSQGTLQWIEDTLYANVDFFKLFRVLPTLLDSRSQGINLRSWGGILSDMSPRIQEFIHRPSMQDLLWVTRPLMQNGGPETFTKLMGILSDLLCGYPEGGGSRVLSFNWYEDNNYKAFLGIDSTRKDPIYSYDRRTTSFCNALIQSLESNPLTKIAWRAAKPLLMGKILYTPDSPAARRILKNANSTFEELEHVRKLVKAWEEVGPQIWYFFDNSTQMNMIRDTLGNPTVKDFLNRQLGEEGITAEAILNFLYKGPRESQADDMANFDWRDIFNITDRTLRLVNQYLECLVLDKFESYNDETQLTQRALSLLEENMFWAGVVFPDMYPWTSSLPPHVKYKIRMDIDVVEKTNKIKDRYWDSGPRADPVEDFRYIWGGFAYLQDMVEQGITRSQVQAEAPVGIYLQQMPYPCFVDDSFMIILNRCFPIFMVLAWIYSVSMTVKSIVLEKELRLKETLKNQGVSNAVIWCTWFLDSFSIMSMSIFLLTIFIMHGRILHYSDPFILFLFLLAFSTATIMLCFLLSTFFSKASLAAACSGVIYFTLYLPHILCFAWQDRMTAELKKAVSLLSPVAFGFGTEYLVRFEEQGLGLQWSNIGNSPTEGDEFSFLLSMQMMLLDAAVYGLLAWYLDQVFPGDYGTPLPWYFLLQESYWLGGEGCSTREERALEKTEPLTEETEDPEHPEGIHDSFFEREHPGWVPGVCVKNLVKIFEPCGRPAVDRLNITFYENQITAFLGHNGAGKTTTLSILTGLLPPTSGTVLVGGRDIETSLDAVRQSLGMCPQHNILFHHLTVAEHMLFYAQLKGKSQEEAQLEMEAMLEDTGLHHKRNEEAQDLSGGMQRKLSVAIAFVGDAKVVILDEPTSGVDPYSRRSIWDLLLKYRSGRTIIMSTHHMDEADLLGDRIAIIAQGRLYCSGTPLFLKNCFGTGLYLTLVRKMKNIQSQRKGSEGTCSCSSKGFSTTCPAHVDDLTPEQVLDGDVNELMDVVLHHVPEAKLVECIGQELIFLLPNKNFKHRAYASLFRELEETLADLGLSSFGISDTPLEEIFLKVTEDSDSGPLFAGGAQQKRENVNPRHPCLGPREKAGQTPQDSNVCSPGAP
T1 sequence (P78363 1326-2273): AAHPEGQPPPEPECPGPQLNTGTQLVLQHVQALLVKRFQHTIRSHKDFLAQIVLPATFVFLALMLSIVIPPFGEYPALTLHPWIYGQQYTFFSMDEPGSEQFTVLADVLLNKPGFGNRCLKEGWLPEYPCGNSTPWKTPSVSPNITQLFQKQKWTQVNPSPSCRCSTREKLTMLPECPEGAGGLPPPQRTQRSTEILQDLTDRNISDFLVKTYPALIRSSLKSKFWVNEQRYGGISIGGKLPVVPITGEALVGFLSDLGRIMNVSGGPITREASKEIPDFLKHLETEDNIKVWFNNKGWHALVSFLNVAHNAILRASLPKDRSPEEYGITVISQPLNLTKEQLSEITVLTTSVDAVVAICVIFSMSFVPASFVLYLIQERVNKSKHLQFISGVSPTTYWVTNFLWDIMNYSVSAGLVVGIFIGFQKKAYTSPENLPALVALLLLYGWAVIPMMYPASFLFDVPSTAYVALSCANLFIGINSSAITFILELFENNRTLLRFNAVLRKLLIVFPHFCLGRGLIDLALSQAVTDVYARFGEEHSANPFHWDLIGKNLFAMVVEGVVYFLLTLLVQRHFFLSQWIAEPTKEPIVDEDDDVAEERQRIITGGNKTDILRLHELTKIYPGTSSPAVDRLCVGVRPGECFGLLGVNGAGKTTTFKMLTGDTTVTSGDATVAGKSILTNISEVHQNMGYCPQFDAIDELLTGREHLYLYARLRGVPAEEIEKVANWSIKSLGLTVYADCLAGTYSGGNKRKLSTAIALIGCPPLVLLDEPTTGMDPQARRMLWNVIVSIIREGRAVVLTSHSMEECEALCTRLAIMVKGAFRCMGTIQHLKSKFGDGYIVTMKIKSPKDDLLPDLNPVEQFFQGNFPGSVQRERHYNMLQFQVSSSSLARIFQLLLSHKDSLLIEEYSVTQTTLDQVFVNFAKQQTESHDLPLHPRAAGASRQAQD
Description: (§1) Preparation of Membranes—Membranes from transfected cells were prepared as described previously (Bungert, S., Molday, L. L., and Molday, R. S. (2001) J Biol Chem 276(26), 23539-46). In some experiments, the protocol was scaled down and the cell homogenate from one or two 10-cm dishes, after passing through a 26-gauge needle (6 times), was centrifuged on a discontinuous gradient consisting of 5% and 60% sucrose for 30 min at 30,000 rpm (60,000×g) in a TLS55 rotor (Beckman Optima TL ultracentrifuge).
(§2) 8-Azido-ATP Photoaffinity Labeling—Membranes (50-150 μg protein) in 50 μl of labeling buffer (20 mM Tris-HCl, pH 7.4, 140 mM NaCl, 5 mM MgCl2) were incubated with 1-4 μM 8-azido-[α-^32P]ATP (Perkin-Elmer Life Science; 20 Ci/mmol) on ice, with gentle shaking, under UV light (254 nm) for 10 min at a distance of 10 cm. Ice-cold 20 mM Tris-HCl, pH 7.4, was added and the membranes were collected by centrifugation (TLA45 rotor, 55000 g, 15 min). The membrane suspension (200 μl in TBS [Tris-HCl, pH 7.4, 140 mM NaCl]) was added to 200 μl of 2% Triton X-100 in TBS, pH 7.4). After 30 min on ice, the cleared extract was mixed with 25 μl antibody coupled to Sepharose 2B for 1-12 h at 4° C. The beads were washed 4 times in TBS containing 0.2% Triton X-100 and eluted twice, 30 μl each, in 4% SDS, 0.2% Triton X-100, TBS. […]

[2] = target: T2, full-length ABCR (Homo sapiens, UniProt P78363); experiment: as above; type: binding; parameters: Membranes from transfected cells expressing either full-length ABCR (lanes 1 & 2); expressed in transfected cells; host or cells: transfected cells (COS-1 or EBNA293); conditions: 1 mM ATP added prior to labeling with 1.5 μM 8-azido-[α-32P]ATP; FIG. 5A lane 2
Description: as §1, §2

[3] = target: T3, ABCR (Homo sapiens, UniProt P78363); experiment: 8-azido-ATP/ADP trapping in membranes from transfected cells; type: binding; conditions: 5 μM 8-azido-[α-32P]ATP, 37° C.; 800 μM orthovanadate, 50 μM all-trans retinal, or 10 mM MgATP in wash step
T3 construct: Membranes from transfected cells expressing either full-length ABCR (lanes 1 & 2) or co-expressing the N and C halves; expressed in transfected cells; host or cells: transfected cells (COS-1 or EBNA293)
Description: 8-Azido-ATP Trapping—Membranes were incubated with 5 [M 8-azido-[α-^32P]ATP in 50 μl of labeling buffer with or without 800 μM sodium orthovanadate for 10 min at 37° C. All-trans retinal and 50 μM DTT were added where indicated. Binding was stopped by the addition of ice-cold 20 mM Tris-HCl, pH 7.4, the membranes were collected by centrifugation and washed one more time. Samples exposed to orthovanadate were washed in the presence of 800 μM orthovanadate. In some experiments MgATP (10 mM) was included in the wash step, but had no effect. The membranes were suspended in 30 μl of 20 mM Tris-HCl, pH 7.4, irradiated with UV light for 10 min on ice, diluted to 200 μl with TBS, pH 7.4, and solubilized as described above for azido-ATP binding.
To gain more insight into the properties of the NBD of ABCR, trapping experiments were carried out using 8-azido-[α^32P]ATP.

[4] = target: T4, individually expressed C half of ABCR (Homo sapiens, UniProt P78363); experiment: Retinal-stimulated ATPase activity of purified protein reconstituted in lipid vesicles; type: biochemical; conditions: individually expressed in COS-1 cells
T4 construct: N-half (amino acids 1-1325) and C-half (amino acids 1326-2273) of ABCR; added initiator Met (ATG in the forward primer, read by me) (N); made in house; host or cells: COS-1
T4 sequence (P78363 1326-2273): T1 sequence (P78363 1326-2273)
Description: (§3) Membranes (from two 10 cm dishes) were solubilized in 0.5 ml of 1% Triton-X100 in Buffer A (140 mM NaCl, 20 mM Tris-HCl, pH 7.4) for 20 min on ice. For ATPase assays, the membrane preparation step was omitted and the cell suspension was solubilized directly in Buffer B (10 mg/ml soybean phospholipids, 10% glycerol, 1 mM dithiothreitol, 100 mM NaCl, 3 mM MgCl2, 50 mM NaHEPES, pH 7.4) containing 18 mM CHAPS. The supernatant after a 10 min centrifugation at 40,000 rpm (TLA100.4 rotor) was mixed with 50 μl Rim3F4 Sepharose 2B for 1 h at 4° C. The beads were washed 6 times in Buffer A containing 0.2% Triton X-100 or Buffer B containing 10 mM CHAPS and eluted with 4% SDS (for electrophoresis) or 0.2 mg/ml Rim3F4 peptide (for reconstitution and determination of ATPase activity). Purified protein (24 μl) was incubated with 6 μl of 50 mg/ml lipid (1:1 mixture of dioleoylphosphatidylethanolamine and brain polar lipid, by weight) and 3 μl n-octylglucoside for 30 min on ice. The mixture was diluted rapidly with 200 μl of Buffer C (1 mM dithiothreitol, 140 mM NaCl, 25 mM NaHEPES, pH 7.4) and passed through a 200 μl Extracti-gel column (Pierce). The flow-through containing the reconstituted protein was used for determination of ATPase activity.
(§4) ATPase activity was measured as described previously (Ahn, J., Wong, J. T., and Molday, R. S. (2000) J Biol Chem 275(27), 20399-405) using 50 μM [α^32P]ATP and thin layer chromatography. The all-trans retinal concentration was determined spectrophotometrically (λ383 nm=42.88 mM^−1 cm^−1). Protein concentration was estimated from the eluate before reconstitution by laser densitometry of Coomassie blue stained gels using bovine serum albumin as a standard. […] Direct protein measurements after reconstitution by densitometry of Western blots was about half of that in the eluate. […]
(§5) ATPase Activity of Expressed N and C Halves—The basal and retinal activated ATPase activity of full-length ABCR and the N and C halves individually or co-expressed in COS-1 cells was determined after immunoaffinity purification and reconstitution into lipid vesicles. […]

[5] = target: T1, co-expressed N and C halves of ABCR; experiment: as above; type: biochemical; conditions: co-expressed in COS-1 cells, purified on Rim 3F4 column, 50 μM [α32P]ATP
Description: as §3, §4, §5

[6] = target: T5, individually expressed N half of ABCR containing 1D4 epitope tag (N*) (Homo sapiens, UniProt P78363); experiment: as above; type: biochemical; conditions: individually expressed in COS-1 cells, purified on Rho1D4-Sepharose
T5 construct: N-half (amino acids 1-1325) and C-half (amino acids 1326-2273) of ABCR; made in house; host or cells: COS-1
T5 sequence (P78363 1-1325): T1 sequence (P78363 1-1325)
Description: as §3, §4, §5

[7] = target: T2, full-length ABCR; experiment: as above; type: biochemical; parameters: Membranes from transfected cells expressing either full-length ABCR (lanes 1 & 2) or co-expressing the N and C halves; expressed in transfected cells; host or cells: transfected cells (COS-1 or EBNA293); conditions: expressed in COS-1 cells, purified on Rim 3F4 column, 50 μM [α32P]ATP
Description: Membranes (from two 10 cm dishes) were solubilized in 0.5 ml of 1% Triton-X100 in Buffer A (140 mM NaCl, 20 mM Tris-HCl, pH 7.4) for 20 min on ice. For ATPase assays, the membrane preparation step was omitted and the cell suspension was solubilized directly in Buffer B (10 mg/ml soybean phospholipids, 10% glycerol, 1 mM dithiothreitol, 100 mM NaCl, 3 mM MgCl2, 50 mM NaHEPES, pH 7.4) containing 18 mM CHAPS. The supernatant after a 10 min centrifugation at 40,000 rpm (TLA100.4 rotor) was mixed with 50 μl Rim3F4 Sepharose 2B for 1 h at 4° C. The beads were washed 6 times in Buffer A containing 0.2% Triton X-100 or Buffer B containing 10 mM CHAPS and eluted with 4% SDS (for electrophoresis) or 0.2 mg/ml Rim3F4 peptide (for reconstitution and determination of ATPase activity). […]
ATPase activity was measured as described previously (Ahn, J., Wong, J. T., and Molday, R. S. (2000) J Biol Chem 275(27), 20399-405) using 50 μM [α^32P]ATP and thin layer chromatography. The all-trans retinal concentration was determined spectrophotometrically (λ383 nm=42.88 mM^−1 cm^−1). […]
as §5

T3 sequence (P78363 whole entry): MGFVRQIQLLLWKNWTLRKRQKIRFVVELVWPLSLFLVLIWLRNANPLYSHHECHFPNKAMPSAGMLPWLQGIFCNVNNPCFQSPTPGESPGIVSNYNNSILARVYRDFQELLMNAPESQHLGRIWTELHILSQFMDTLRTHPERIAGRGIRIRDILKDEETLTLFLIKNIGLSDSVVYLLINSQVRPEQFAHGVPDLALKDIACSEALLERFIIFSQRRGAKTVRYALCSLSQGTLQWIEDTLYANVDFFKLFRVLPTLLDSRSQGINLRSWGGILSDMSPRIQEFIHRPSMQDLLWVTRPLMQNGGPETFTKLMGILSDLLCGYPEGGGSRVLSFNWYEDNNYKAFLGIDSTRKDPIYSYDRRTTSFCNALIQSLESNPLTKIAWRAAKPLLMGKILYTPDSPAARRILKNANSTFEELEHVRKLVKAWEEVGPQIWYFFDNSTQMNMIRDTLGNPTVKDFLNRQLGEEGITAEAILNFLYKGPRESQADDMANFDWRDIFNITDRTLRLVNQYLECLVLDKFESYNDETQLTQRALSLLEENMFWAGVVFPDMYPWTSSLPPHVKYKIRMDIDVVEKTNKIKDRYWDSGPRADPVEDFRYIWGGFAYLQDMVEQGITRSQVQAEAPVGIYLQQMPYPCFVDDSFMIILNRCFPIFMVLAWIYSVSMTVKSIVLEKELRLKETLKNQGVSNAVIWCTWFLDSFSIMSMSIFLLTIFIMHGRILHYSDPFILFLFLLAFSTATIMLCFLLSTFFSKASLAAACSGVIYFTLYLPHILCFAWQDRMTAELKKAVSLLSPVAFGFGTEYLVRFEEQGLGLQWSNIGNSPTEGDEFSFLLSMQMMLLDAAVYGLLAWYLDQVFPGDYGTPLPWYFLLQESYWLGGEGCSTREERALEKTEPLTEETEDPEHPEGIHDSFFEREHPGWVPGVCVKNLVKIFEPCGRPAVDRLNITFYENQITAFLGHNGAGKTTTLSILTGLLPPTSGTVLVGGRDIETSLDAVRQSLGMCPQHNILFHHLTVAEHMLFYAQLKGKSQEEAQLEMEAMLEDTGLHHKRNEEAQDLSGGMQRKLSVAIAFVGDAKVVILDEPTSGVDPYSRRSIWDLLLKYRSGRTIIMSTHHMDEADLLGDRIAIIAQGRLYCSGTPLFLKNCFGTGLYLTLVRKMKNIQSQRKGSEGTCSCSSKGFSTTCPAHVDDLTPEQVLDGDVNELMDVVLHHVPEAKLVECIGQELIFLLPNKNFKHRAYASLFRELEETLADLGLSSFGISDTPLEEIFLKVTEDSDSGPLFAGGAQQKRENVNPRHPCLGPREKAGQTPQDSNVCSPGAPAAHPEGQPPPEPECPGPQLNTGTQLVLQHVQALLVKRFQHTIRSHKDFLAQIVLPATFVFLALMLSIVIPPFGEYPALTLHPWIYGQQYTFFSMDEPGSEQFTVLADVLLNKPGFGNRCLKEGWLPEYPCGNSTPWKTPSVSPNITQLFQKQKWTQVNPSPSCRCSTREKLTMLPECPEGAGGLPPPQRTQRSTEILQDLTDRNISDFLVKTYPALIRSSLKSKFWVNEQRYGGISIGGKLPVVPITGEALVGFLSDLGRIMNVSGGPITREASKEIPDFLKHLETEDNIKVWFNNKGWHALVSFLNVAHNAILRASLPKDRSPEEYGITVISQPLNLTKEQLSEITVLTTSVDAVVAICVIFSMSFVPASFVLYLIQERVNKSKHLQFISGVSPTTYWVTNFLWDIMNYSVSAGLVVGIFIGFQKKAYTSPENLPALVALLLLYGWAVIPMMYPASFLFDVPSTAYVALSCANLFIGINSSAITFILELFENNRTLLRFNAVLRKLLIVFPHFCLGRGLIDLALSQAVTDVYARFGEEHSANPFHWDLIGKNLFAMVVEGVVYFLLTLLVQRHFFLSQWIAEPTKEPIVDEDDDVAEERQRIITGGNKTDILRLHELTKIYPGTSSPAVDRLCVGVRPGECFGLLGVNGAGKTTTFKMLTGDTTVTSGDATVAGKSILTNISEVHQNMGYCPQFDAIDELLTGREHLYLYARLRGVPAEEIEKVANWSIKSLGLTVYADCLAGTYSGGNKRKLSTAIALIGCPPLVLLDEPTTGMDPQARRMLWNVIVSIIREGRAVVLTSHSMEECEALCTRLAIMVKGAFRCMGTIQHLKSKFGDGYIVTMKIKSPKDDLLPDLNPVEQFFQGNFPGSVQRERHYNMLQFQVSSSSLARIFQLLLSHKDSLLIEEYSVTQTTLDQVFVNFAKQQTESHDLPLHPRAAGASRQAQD
T2 sequence (P78363 whole entry): as above

Compound: Nc1ncnc2c1ncn2[C@@H]1O[C@H](COP(=O)(O)OP(=O)(O)OP(=O)(O)O)[C@@H](O)[C@H]1O [ATP]
- effect on 8-azido-ATP photoaffinity labeling [1]: essentially abolished
- effect on 8-azido-ATP photoaffinity labeling [2]: essentially abolished

Compound: Nc1ncnc2c1ncn2[C@@H]1O[C@H](COP(=O)(O)OP(=O)([O-])OP(=O)([O-])O)[C@@H](O)[C@H]1O.[Mg+2] [MgATP]
- effect on 8-azido ATP/ADP trapping [3]: had no effect

Compound: CC1=C(/C=C/C(C)=C/C=C/C(C)=C/C=O)C(C)(C)CCC1 [all-trans retinal]
- effect on 8-azido ATP/ADP trapping [3]: not dependent on sodium orthovanadate or influenced
- stimulation of ATPase activity by retinal [4]: not stimulated
- stimulation of ATPase activity by all-trans retinal [5]: 1-2 fold
- stimulation of ATPase activity by retinal [6]: not stimulated
- stimulation of ATPase activity by all-trans retinal [7]: 1-2 fold

Compound: [Na+].[Na+].[Na+].[O]=[V]([O-])([O-])[O-] [sodium orthovanadate]
- effect on 8-azido ATP/ADP trapping [3]: not dependent
